For one test, the system named is Sprague Dawley rats. The test is described as follows: Capsaicin induced secondary mechanical hyperalgesia model. As to conditions: po, 1 h, read-out: % inhibition @ 30 mg/kg p.o., 60 minutes before testing, secondary mechanical hyperalgesia 180 minutes after intraplantar capsaicin, rat. In kind it is in vivo. As to the method:
(ii) In Vivo Data—Capsaicin Induced Secondary Mechanical Hyperalgesia Model:
Sprague Dawley rats were briefly restrained, and capsaicin was administered at 10 μg in 10 μL of vehicle by intraplantar injection into the center of the right hind paw. Secondary mechanical hyperalgesia (SMH) was measured at the heel away from the site of injection 180 minutes following capsaicin exposure. Compounds and gabapentin (positive control), were administered p.o. 60 minutes before testing (2 hours after capsaicin) or i.p. 30 minutes before testing (2.5 hours after capsaicin). SMH was measured using calibrated von Frey filaments (Stoelting, Woodale, Ill.). Following the 1 hour habituation in the testing room, rats were moved to individual plexiglass chambers that sit on top of a wire mesh to allow for access for stimulation of the plantar surface of the hind paws. Rats were allowed to acclimate to the new chambers for 15 minutes before the onset of testing. The paw withdrawal threshold was determined by increasing and decreasing stimulus intensity (force: g) and calculated using Dixon's up-down method (Chaplan, S. R.; Bach, F. W.; Pogrel, J. W.; Chung, J. M.; Yaksh, T. L.; Quantitative assessment of tactile allodynia in the rat paw. J. Neuroscience Methods 1994, 53(1), 55-63.). The filaments (maximum force of 15.0 g) were held in place for 8 seconds or until there was a withdrawal response from the mechanical stimulation.

A further test addresses human Cav2.2 (Homo sapiens, UniProt Q00975). The test is described as follows: Assessment of calcium channel activity using FLIPR (Ca2+ influx in IMR32 cells). As to conditions: 60 minute pre-incubation with compound, 2 μM nifedipine, depolarized with 80 mM KCl. In kind it is cell-based. The essentials:
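IC50 came from sigmoidal non-linear regression of percent inhibition, relative to uninhibited activity, across compound concentrations. Calcium influx was measured by FLIPR in IMR32 cells plated at 1-1.2×10^5 cells/well and cultured 48 h at 37 °C.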

Where only a bound is given, the exact number is not on record here.

Sequence of human Cav2.2 (Q00975 whole entry): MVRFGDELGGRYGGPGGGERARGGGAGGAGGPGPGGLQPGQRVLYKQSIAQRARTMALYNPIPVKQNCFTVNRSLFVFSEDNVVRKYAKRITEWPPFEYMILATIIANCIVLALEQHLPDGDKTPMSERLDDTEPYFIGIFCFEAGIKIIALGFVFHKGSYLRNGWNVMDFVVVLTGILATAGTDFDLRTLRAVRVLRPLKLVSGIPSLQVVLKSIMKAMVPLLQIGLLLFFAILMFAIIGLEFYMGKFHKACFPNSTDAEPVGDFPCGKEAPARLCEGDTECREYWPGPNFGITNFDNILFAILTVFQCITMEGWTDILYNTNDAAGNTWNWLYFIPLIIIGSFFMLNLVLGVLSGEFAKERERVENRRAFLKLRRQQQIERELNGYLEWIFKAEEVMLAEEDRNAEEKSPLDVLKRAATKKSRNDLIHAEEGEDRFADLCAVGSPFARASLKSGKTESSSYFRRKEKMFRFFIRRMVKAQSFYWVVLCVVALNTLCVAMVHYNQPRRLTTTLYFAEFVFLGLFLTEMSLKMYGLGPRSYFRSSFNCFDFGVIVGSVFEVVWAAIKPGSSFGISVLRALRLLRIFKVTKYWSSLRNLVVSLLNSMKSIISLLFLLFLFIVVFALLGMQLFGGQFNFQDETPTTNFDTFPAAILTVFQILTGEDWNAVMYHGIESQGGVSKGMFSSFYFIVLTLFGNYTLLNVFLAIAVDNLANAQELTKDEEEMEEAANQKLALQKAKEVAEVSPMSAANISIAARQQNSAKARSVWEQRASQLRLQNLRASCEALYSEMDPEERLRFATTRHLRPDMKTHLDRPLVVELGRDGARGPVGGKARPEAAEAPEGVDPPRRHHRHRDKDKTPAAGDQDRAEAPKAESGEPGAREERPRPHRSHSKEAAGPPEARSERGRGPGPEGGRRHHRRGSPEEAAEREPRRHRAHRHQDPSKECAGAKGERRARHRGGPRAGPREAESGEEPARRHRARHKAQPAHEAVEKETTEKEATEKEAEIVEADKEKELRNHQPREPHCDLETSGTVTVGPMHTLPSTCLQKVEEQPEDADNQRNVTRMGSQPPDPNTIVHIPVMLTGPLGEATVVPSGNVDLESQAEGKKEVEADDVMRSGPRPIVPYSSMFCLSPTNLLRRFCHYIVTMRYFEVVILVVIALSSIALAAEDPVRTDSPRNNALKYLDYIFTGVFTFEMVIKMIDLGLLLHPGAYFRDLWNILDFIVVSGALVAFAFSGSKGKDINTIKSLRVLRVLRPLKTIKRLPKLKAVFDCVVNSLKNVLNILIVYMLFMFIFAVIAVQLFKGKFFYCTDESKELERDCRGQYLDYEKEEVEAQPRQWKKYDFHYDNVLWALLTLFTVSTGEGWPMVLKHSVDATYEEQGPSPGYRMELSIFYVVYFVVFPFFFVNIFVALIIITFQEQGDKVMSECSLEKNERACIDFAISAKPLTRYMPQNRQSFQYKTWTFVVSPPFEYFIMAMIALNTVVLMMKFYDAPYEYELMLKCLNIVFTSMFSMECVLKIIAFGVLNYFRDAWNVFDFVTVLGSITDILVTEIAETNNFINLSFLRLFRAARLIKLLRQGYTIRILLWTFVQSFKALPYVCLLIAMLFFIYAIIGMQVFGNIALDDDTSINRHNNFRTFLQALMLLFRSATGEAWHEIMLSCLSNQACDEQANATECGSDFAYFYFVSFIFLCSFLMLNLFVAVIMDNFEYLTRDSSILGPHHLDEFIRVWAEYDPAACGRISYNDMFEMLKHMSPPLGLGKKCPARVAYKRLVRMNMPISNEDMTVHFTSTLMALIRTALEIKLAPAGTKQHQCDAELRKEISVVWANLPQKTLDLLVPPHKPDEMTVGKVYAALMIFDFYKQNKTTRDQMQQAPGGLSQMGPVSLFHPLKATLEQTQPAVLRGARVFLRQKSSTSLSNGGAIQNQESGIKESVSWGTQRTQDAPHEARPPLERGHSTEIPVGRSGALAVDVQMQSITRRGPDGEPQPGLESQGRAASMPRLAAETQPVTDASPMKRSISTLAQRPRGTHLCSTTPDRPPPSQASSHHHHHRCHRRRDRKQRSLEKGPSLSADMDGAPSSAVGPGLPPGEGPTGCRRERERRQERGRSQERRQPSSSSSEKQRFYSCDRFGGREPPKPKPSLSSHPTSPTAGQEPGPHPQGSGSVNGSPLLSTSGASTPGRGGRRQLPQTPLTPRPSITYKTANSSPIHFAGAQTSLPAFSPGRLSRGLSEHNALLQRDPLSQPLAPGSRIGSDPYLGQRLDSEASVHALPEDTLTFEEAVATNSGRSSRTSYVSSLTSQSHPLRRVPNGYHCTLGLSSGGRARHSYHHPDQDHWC
Sequence of human Cav2.2 (P54289 25-946 partner limits assumed): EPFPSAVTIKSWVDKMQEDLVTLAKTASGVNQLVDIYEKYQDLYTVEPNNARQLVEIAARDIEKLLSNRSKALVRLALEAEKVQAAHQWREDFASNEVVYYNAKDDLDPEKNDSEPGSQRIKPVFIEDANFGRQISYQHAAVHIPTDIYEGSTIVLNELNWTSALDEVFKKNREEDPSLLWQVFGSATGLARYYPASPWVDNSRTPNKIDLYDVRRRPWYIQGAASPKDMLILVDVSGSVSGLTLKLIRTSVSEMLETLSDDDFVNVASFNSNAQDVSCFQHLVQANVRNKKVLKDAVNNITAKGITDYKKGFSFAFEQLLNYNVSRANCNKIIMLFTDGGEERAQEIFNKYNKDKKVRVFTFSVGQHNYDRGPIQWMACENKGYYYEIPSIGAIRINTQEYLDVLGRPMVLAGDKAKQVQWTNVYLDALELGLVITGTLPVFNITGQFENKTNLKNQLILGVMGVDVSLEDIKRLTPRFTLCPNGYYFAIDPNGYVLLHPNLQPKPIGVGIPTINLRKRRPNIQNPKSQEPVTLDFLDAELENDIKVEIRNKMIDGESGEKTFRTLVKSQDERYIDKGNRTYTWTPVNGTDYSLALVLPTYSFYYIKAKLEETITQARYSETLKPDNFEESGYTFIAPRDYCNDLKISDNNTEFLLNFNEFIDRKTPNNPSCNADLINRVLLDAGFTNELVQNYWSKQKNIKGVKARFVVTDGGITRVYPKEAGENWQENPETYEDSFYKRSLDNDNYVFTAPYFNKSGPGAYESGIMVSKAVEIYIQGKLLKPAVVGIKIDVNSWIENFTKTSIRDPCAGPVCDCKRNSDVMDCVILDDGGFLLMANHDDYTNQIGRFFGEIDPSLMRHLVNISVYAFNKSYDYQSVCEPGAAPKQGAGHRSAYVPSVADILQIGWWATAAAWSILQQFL
Sequence of human Cav2.2 (P54289 947-1103 partner limits assumed): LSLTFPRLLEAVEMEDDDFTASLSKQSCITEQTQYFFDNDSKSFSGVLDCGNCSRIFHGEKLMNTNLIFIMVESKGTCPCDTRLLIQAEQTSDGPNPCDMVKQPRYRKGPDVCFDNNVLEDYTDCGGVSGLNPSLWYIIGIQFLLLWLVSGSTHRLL
Sequence of human Cav2.2 (P54284 whole entry partner): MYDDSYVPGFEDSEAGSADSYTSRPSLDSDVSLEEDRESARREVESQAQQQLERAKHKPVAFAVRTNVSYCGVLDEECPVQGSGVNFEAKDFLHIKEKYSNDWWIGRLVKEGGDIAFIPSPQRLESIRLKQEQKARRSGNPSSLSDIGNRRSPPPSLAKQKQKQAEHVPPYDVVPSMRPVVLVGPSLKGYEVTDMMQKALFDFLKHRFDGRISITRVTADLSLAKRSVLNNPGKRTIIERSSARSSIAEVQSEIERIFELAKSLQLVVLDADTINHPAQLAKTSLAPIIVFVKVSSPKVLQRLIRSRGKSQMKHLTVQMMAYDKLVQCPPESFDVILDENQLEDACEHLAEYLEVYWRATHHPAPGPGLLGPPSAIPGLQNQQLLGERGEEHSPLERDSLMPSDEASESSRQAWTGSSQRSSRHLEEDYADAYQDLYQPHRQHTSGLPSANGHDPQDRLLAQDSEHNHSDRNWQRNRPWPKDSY

As for `O=C(N[C@@H]1CC[C@H]2CN(Cc3cccc(C(F)(F)F)c3)C[C@H]21)C(C1CCCCC1)C1CCCCC1` [Example 75, 2,2-dicyclohexyl-N-{(3aS,4R,6aR)-2-[3-(trifluoromethyl)benzyl]octahydrocyclopenta[c]pyrrol-4-yl}acetamide], in the test on Sprague Dawley rats, the inhibition in vivo at 30 mg/kg worked out at 85%. Further, the IC50 on human Cav2.2 amounted to 500 nM.
As for `O=C(N[C@H]1CC[C@@H]2CN(Cc3cccc(C(F)(F)F)c3)C[C@@H]21)C(C1CCCCC1)C1CCCCC1` [Example 156, 2,2-dicyclohexyl-N-{(3aR,4S,6aS)-2-[3-(trifluoromethyl)benzyl]octahydrocyclopenta[c]pyrrol-4-yl}acetamide], in the test on Sprague Dawley rats, the inhibition in vivo at 30 mg/kg was found to be 67%. For the same compound, the IC50 at human Cav2.2 is 800 nM.
For `O=C(N[C@@H]1CC[C@@H]2CN(Cc3cccc(C(F)(F)F)c3)C[C@@H]21)C(C1CCCCC1)C1CCCCC1` [Example 157, 2,2-dicyclohexyl-N-{(3aR,4R,6aS)-2-[3-(trifluoromethyl)benzyl]octahydrocyclopenta[c]pyrrol-4-yl}acetamide], in the test with Sprague Dawley rats, the inhibition in vivo at 30 mg/kg amounted to 57%. Also, the IC50 at human Cav2.2 was 2100 nM.
The matching figures for `CN[C@@H](CC(C)C)C(=O)N[C@@H]1CC[C@H]2CN(Cc3ccccc3)C[C@H]21` [Example 165, N^1-[(3aS,4R,6aR)-2-benzyloctahydrocyclopenta[c]pyrrol-4-yl]-N^2-methyl-L-leucinamide]: 92% and 33300 nM.
For `CC(C)C[C@@H](C(=O)N[C@@H]1CC[C@H]2CN(Cc3ccccc3)C[C@H]21)N1CCCS1(=O)=O` [Example 220, (2S)—N-[(3aS,4R,6aR)-2-benzyloctahydrocyclopenta[c]pyrrol-4-yl]-2-(1,1-dioxidoisothiazolidin-2-yl)-4-methylpentanamide], in the test on Sprague Dawley rats, the inhibition in vivo at 30 mg/kg amounted to 76%. Moreover, on human Cav2.2, the 50% inhibitory concentration (IC50) was > 9000 nM.
As to `CCC[C@H](NC(=O)OC(C)C)C(=O)N[C@H]1CC[C@@H]2CN(Cc3ccc(C(F)(F)F)cc3)C[C@@H]21` [Example 280, isopropyl(S)-1-oxo-1-((3aR,4S,6aS)-2-(4-(trifluoromethyl)benzyl)octahydrocyclopenta[c]pyrrol-4-ylamino)pentan-2-ylcarbamate], in the test on Sprague Dawley rats, the inhibition in vivo at 30 mg/kg stood at 38%. For the same compound, at human Cav2.2, the IC50 worked out at 5040 nM.
In the case of `CN[C@@H](CC(C)(C)C)C(=O)N[C@H]1CC[C@@H]2CN(S(=O)(=O)c3ccc(C(F)(F)F)cc3)C[C@@H]21` [Example 415, N^2,4-dimethyl-N^1-((3aR,4S,6aS)-2-{[4-(trifluoromethyl)phenyl]sulfonyl}octahydrocyclopenta[c]pyrrol-4-yl)-L-leucinamide], the inhibition in vivo at 30 mg/kg in the test on Sprague Dawley rats stood at 52%. Also, the IC50 on human Cav2.2 was 2970 nM.
Take `CC(C)(C)C[C@H](NCC1CC1)C(=O)N[C@H]1CC[C@@H]2CN(c3ccc(C(F)(F)F)cn3)C[C@@H]21` [Example 478, N^2-(cyclopropylmethyl)-4-methyl-N^1-{(3aR,4S,6aS)-2-[5-(trifluoromethyl)pyridin-2-yl]octahydrocyclopenta[c]pyrrol-4-yl}-L-leucinamide]: the inhibition in vivo at 30 mg/kg in the test with Sprague Dawley rats is 57%. Besides, the concentration for half-maximal inhibition (IC50) on human Cav2.2 was determined as 750 nM.
In the case of `CC(C)N[C@@H](CC(C)(C)C)C(=O)N[C@H]1CC[C@@H]2CN(C(=O)[C@H](CC(C)(C)C)NC(C)C)C[C@@H]21` [Example 488, N^2-isopropyl-N^1-[(3aR,4S,6aS)-2-(N-isopropyl-4-methyl-L-leucyl)octahydrocyclopenta[c]pyrrol-4-yl]-4-methyl-L-leucinamide], in the test with Sprague Dawley rats, the inhibition in vivo at 30 mg/kg was 55%. In addition, the IC50 on human Cav2.2 stood at 7430 nM.
Consider `CC(C)N[C@@H](CC(C)(C)C)C(=O)N[C@H]1CC[C@@H]2CN(C(=O)[C@H](Cc3ccccc3)NC(C)C)C[C@@H]21` [Example 489, N^2-isopropyl-N^1-[(3aR,4S,6aS)-2-(N-isopropyl-L-phenylalanyl)octahydrocyclopenta[c]pyrrol-4-yl]-4-methyl-L-leucinamide], for which, in the test with Sprague Dawley rats, the inhibition in vivo at 30 mg/kg worked out at 47%. Further, the IC50 at human Cav2.2 is 9760 nM.
For the compound `O=C(N[C@H]1CC[C@@H]2CN(c3cccc(C(F)(F)F)n3)C[C@@H]21)c1ccc(F)cc1` [Example 560, 4-fluoro-N-{(3aR,4S,6aS)-2-[6-(trifluoromethyl)pyridin-2-yl]octahydrocyclopenta[c]pyrrol-4-yl}benzamide], the inhibition in vivo at 30 mg/kg with Sprague Dawley rats was 42%. On human Cav2.2, the IC50 was 1450 nM.
